Article PMC6175634 (Molecular genetics and metabolism, 2018)

Biological target: T1, sulfamidase (wild-type mouse DBS) (Mus musculus, UniProt Q9EQ08)
T1 sequence (Q9EQ08 23-502): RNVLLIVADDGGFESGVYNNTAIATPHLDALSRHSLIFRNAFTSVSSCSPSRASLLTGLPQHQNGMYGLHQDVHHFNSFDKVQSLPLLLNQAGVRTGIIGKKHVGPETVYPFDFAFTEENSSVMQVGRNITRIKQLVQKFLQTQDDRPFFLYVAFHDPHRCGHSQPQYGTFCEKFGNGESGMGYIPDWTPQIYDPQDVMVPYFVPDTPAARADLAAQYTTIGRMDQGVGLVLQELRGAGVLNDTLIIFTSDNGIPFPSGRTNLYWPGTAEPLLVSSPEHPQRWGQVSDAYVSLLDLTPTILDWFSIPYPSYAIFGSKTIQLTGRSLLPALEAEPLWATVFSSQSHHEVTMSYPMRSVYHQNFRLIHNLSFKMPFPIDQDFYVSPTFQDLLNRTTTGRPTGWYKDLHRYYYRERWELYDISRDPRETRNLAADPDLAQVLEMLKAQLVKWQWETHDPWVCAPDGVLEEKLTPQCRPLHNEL
Assay: LC-MS/MS product formation in dried blood spot, knockout mouse control
Type: biochemical
Conditions: 1 mM substrate, otherwise same

## O=S(=O)(O)N[C@H]1[C@@H](Oc2ccc3ccccc3c2)O[C@H](CO)[C@@H](O)[C@@H]1O [MPS-IIIA-S, 2-sulfamate-2-deoxy-1-α-(2-naphthyl)-glucopyranoside]
  LC-MS/MS product formation in dried blood spot, knockout mouse control: sulfamidase activity was readily detected in a DBS made using blood from a wild-type mouse
